One series has as its system insect. Nature of the series: Insect control assays. Conditions: in vivo.
In series [1] the test system is beet armyworm (Spodoptera exigua) larvae. Nature of the series: Topical assay on beet armyworm larvae. It counts as in vivo. To be noted: acetone solution, 1 microg/larva, six larvae, mortality at end of two-day period, 21° C., 60% RH. As for the experimental part:
(§1) Biological activity of the compounds of the invention was shown by a topical assay in which the compound was applied to laboratory-reared larvae (mean weight 22 mg) at the rate of 1 microg/larva. Each compound was applied, in an acetone solution (1 mg/mL), along the dorsum of six tobacco budworm (Heliothis virescens) larvae and six beet armyworm (Spodoptera exigua) larvae. Treated larvae were then held for two days at 21° C., 60% RH in six-well plastic culture plates. Larvae were each supplied with a 1 cm^3 of agar-based Lepidoptera diet for sustenance during the two-day post-exposure interval. Percent mortality was determined at the end of a two-day period (Table 18).

Series [2] relates to tobacco budworm (Heliothis virescens) larvae. Nature of the series: Topical assay on tobacco budworm larvae. It counts as in vivo. Conditions: acetone solution, 1 microg/larva, six larvae, mortality at end of two-day period, 21° C., 60% RH. As for the experimental part:
as §1

Structures are written as SMILES.

Consider `CCC[C@H]1CCC[C@H](O[C@H]2CC[C@H](N(C)C)[C@@H](C)O2)[C@@H](C)C(=O)C2=C[C@@H]3[C@@H](C=C[C@@H]4C[C@@H](O[C@@H]5O[C@@H](C)[C@H](OC)[C@@H](OC)[C@H]5OC)C[C@@H]34)[C@@H]2CC(=O)O1` [21-desethyl-21-n-propyl spinosyn A], for which the “activity in insect control assays” value with insect was “active”.

`CO[C@@H]1[C@@H](OC)[C@H](C)O[C@@H](O[C@H]2C[C@H]3[C@@H]4C=C5C(=O)[C@H](C)[C@@H](O[C@H]6CC[C@H](N(C)C)[C@@H](C)O6)CCC[C@@H](C6CC6)OC(=O)C[C@H]5[C@@H]4C=C[C@@H]3C2)[C@@H]1OC` [Compound 1, 21-desethyl-21-cyclopropyl spinosyn A]: in series [1], the “Beet Armyworm Mortality (%)” value amounted to 33%. Further, the “Tobacco Budworm Mortality (%)” value in series [2] is on record as 100%.

On to `CO[C@@H]1[C@@H](OC)[C@H](C)O[C@@H](O[C@H]2C[C@H]3[C@@H]4C=C5C(=O)[C@H](C)[C@@H](O[C@H]6CC[C@H](N(C)C)[C@@H](C)O6)CCC[C@@H](C6CCC6)OC(=O)C[C@H]5[C@@H]4C=C[C@@H]3C2)[C@@H]1OC` [Compound 3, 21-desethyl-21-cyclobutyl spinosyn A], for which the “Beet Armyworm Mortality (%)” value in series [1] was found to be 83%. Moreover, in series [2], the “Tobacco Budworm Mortality (%)” value was determined as 83%.

For the compound `CO[C@@H]1[C@@H](OC)[C@H](C)O[C@@H](O[C@H]2C[C@H]3[C@@H]4C=C5C(=O)[C@H](C)[C@@H](O[C@H]6CC[C@H](N(C)C)[C@@H](C)O6)CCC[C@H](C6CCC6)OC(=O)C[C@H]5[C@@H]4C=C(C)[C@@H]3C2)[C@@H]1OC` [Compound 4, 21-desethyl-21-cyclobutyl spinosyn D], in series [1], the “Beet Armyworm Mortality (%)” value came to 83%. The “Tobacco Budworm Mortality (%)” value in series [2] came out at 100%.

Take `CO[C@@H]1[C@@H](OC)[C@H](C)O[C@@H](O[C@@H]2C[C@H]3CC[C@@H]4[C@@H](C=C5C(=O)[C@H](C)[C@@H](O[C@H]6CC[C@H](N(C)C)[C@@H](C)O6)CCC[C@H](C6CCC6)OC(=O)C[C@H]54)[C@@H]3C2)[C@@H]1OC` [Compound 8, 5,6-dihydro-21-desethyl-21-cyclobutyl spinosyn A]: in series [1], the “Beet Armyworm Mortality (%)” value came out at 83%. Also, the “Tobacco Budworm Mortality (%)” value in series [2] was determined as 100%.

For `CO[C@@H]1[C@@H](OC)[C@H](C)O[C@@H](O[C@H]2C[C@H]3[C@@H]4C=C5C(=O)[C@H](C)[C@@H](O[C@H]6CC[C@H](N(C)C)[C@@H](C)O6)CCC[C@H](C(C)C)OC(=O)C[C@H]5[C@@H]4C=C[C@@H]3C2)[C@@H]1OC` [Compound 9, 21-desethyl-21-isopropyl spinosyn A], in series [1], the “Beet Armyworm Mortality (%)” value was determined as 100%. The “activity in insect control assays” value in the series on insect is given as “active”. Further, the “Tobacco Budworm Mortality (%)” value in series [2] is 100%.

`CCC[C@H]1CCC[C@H](O[C@H]2CC[C@H](N(C)C)[C@@H](C)O2)[C@@H](C)C(=O)C2=C[C@@H]3[C@@H](C=C[C@@H]4C[C@@H](O[C@@H]5O[C@@H](C)[C@H](OC)[C@@H](OC)[C@H]5OC)C[C@@H]34)[C@@H]2CC(=O)O1` [Compound 23, 21-desethyl-21-n-propyl spinosyn A]: in series [1], the “Beet Armyworm Mortality (%)” value came out at 100%. Further, in series [2], the “Tobacco Budworm Mortality (%)” value is listed as 100%.

Values taken from patent US9137992B2, “Spinosyn-producing polyketide synthases” (DOW AGROSCIENCES LLC, priority 2002, dated 2015).
